In patent US20260325481A1, “THERAPY SELECTION AND TREATMENT OF NEURODEGENERATIVE DISORDERS” (Anavex Life Sciences Corp., priority 2022, published 2026):

Test system: patients with Parkinson's Disease with Dementia (PDD)
Test: ANAVEX 2-73-PDD-001 Phase 2 study (randomized, double blind, placebo-controlled) in Parkinson's Disease with Dementia
Type: in vivo, human
Protocol: In order to assess the safety, tolerability and efficacy of ANAVEX® 2-73 (blarcamesine) oral capsules in treating cognitive impairment in patients with Parkinson's Disease with Dementia (PDD), a phase 2 study, coded “ANAVEX® 2-73-PDD-001 study” (FIG. 1), was conducted. The study was multi-center, randomized, double blind, placebo-controlled, parallel group with 3-arm. The study included a 2-week Screening/Baseline Observation Period and a 14-week Treatment Period (including a 2 week Titration Period), and a 2-week Safety Follow-Up Period. A total of 132 patients were enrolled in the study and were randomly assigned to three testing arms (FIG. 1). In ANAVEX2-73 High Dose arm, 44 patients were given oral capsules of ANAVEX2-73 once daily in an escalating dose of 10 mg, 20 mg, 30 mg and 50 mg. In ANAVEX2-73 Mid Dose arm, 44 patients were given oral capsules of ANAVEX2-73 once daily in an escalating dose of 10 mg, 20 mg, and 30 mg. In placebo group, 44 patients were given placebo capsules. Outcome measures included Cognitive Drug Research (CDR) Computerized Assessment System on Continuity of Attention; Change from Baseline to End of Treatment in Continuity of Attention as measured by Cognitive Drug Research (CDR) Computerized Assessment System Continuity of Attention; Number of participants with treatment-related adverse events as assessed by CTCAE v4.0 [Time Frame: 14 weeks]; Assessment of the safety and tolerability of ANAVEX2-73 compared to placebo; MDS-UPDRS Part III Total Score (Motor Scores); Change from baseline to End of Treatment as measured by MDS-UPDRS Part III Total Score (Motor Scores); SDS-CL-25 [Time Frame: 14 weeks]; Incidence of sleep disorders symptoms (SDS-CL-25); and DNA/RNA Sequencing. Since MDS-UPDRS is indicative of the motor activity for Parkinson Disease (PD), the trial can also identify the effects of ANAVEX® 2-73 on PD patients.
The trial enrolled 132 adults, ages 50-85, with PDD, and was successfully concluded in September 2020. Participants, recruited at multiple sites in Spain and Australia, were randomly assigned to one of two doses groups (with an escalating ANAVEX 2-73 dose up to 30 or 50 mg oral capsules) or to a placebo, once daily for 14 weeks (see FIG. 1 for details). The trial's main goals were to assess the therapy's safety and changes in patients' cognitive function, measured using the cognitive drug research computerized assessment system—a test that looks at multiple cognitive skills, such as choice reaction time (choosing between similar objects), vigilance, and episodic memory (remembering new personal experiences or shared information). Secondary goals included changes in patients' motor abilities—assessed with the Movement Disorders Society Unified Parkinson's Disease Rating Scale (MDS-UPDRS) Part III—and sleep quality. […] This sleep disorder is associated with greater cognitive impairment and a higher risk of dementia. […] After 14 weeks, the MDS-UPDRS total score dropped by 10.98 points (indicating an easing in disease severity) in the high-dose group and rose by 3.53 points in the placebo group. This represented an adjusted mean improvement of 14.51 points—surpassing the established, clinically meaningful 7.1 point-cut-off—and a relative improvement of 18.9% over 14 weeks. These findings highlight ANAVEX 2-73's ability to not only slow, but also reverse, symptoms that progress in Parkinson's disease, potentially fulfilling an urgent unmet medical need, Anavex stated in its release. […] After completing the PDD-001 trial, patients had the option of being treated with ANAVEX 2-73 for nearly one year in its extension study, called ANAVEX 2-73-PDD-EP-001 (NCT04575259).
Randomized, placebo-controlled clinical trial in 132 patients with Parkinson's disease with dementia (PDD) included prespecified biomarkers of response as well as Whole Exome Sequencing DNA data and full RNA exome expression data collection. […]

Question: For `CN(C)CC1CCOC1(c1ccccc1)c1ccccc1.Cl` (centres unmarked) [ANAVEX2-73, tetrahydro-N,N-dimethyl-2,2-diphenyl-3-furanmethanamine hydrochloride], which “Dementia assessment, Quality of Episodic Memory” value (14-week trial, oral) is on record?
Answer: Its value is “dose-dependent, statistically significant improvement”.

Question: And the “REM sleep behavior disorder” value (14 weeks, previously reported results, confirmed)?
Answer: The value was “lessened REM sleep behavior disorder”.

Question: And the Cognitive skills (CDR computerized assessment system, 14 weeks, previously reported results, confirmed)?
Answer: The Cognitive skills was “significantly improved several cognitive skills”.

Question: And the “MDS-UPDRS Part II response” value (MS4A4A Wild Type rs6591561 cohort (excluding rs6591561 homozygous mutation carriers))?
Answer: The value was “strongest response”.

Question: And the “Response depending on patients' MS4A4A (rs6591561) carrier status” value (PDD-001 study)?
Answer: Its value is “Different ANAVEX® 2-73 response”.

Question: What about the “Motor and non-motor Parkinson's symptoms (MDS-UPDRS total score)” value (high dose (50 mg) once daily oral, 14 weeks) of the same compound?
Answer: The value was “statistically significant and clinically meaningful reductions”.

Question: What about the “Parkinson's assessment, MDS-UPDRS Total score” value (high oral dose once daily, 14-week trial) of the same compound?
Answer: The value was “significant improvement”.

Question: What about the Safety (oral capsules once daily up to 30 or 50 mg, 14 weeks, previously reported results) of the same compound?
Answer: Its Safety is “generally safe”.
